The results in this text go back to ChEMBL document CHEMBL1129306, “3-((4-(4-Chlorophenyl)piperazin-1-yl)-methyl)-1H-pyrrolo-2,3-b-pyridine: an antagonist with high affinity and selectivity for the human dopamine D4 receptor” (J Med Chem, 1996).

In experiment [1] the target is T1, D(4) dopamine receptor (Homo sapiens, UniProt P21917).
T1 sequence (P21917 whole entry): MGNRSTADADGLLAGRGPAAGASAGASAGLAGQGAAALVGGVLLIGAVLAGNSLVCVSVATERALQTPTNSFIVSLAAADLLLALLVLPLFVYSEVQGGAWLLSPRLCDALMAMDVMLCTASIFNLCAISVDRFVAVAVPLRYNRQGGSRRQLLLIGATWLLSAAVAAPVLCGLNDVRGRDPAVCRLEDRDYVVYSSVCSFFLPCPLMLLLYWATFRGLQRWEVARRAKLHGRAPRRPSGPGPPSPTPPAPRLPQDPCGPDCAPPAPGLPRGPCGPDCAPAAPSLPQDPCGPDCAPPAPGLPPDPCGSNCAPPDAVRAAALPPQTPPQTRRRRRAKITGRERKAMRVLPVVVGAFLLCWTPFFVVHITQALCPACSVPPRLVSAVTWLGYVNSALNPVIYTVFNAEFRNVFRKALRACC
Briefly: biochemical.
Description: Binding affinity towards cloned human Dopamine receptor D4 stably expressed in CHO cells was evaluated using [3H]spiperone as radioligand

Experiment [2] addresses D(3) dopamine receptor (Homo sapiens, UniProt P35462). Briefly: biochemical.
Description: Binding affinity towards cloned human Dopamine receptor D3 stably expressed in CHO cells was evaluated using [3H]spiperone as radioligand

D(3) dopamine receptor, sequence (P35462 whole entry): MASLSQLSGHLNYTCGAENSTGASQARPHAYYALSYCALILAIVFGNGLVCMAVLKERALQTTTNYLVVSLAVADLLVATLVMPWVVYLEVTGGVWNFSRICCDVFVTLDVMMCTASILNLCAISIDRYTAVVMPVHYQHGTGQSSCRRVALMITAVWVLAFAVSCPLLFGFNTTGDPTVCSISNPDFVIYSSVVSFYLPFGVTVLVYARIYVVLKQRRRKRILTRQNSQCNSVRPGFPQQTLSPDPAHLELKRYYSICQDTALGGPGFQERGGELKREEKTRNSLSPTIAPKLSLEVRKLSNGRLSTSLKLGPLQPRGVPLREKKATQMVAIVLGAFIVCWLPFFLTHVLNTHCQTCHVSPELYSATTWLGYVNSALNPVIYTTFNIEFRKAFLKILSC

Turning to `c1ccc2c(CN3CCCCC3)c[nH]c2c1`, the Ki in experiment [1] is above 2600 nM; in experiment [2], above 3700 nM.
Consider `c1ccc(N2CCN(Cc3c[nH]c4ccccc34)CC2)cc1`, for which the figures for the inhibition constant Ki in experiment [1] and in experiment [2] were 8 nM and 280 nM, respectively.
On to `Ic1ccc(N2CCN(Cc3c[nH]c4ncccc34)CC2)cc1`, for which the Ki in experiment [1] is 0.51 nM; in experiment [2], above 4500 nM.
In the case of `c1ccc(C2CCN(Cc3c[nH]c4ccccc34)CC2)cc1`, the figures for the inhibitory constant (Ki) in experiment [1] and in experiment [2] were 25 nM and 95 nM, respectively.
On the same counts, the results for `CC1CCN(Cc2c[nH]c3ccccc23)CC1` are 570 nM and 6700 nM.
Take `OC1(c2ccc(Cl)cc2)CCN(Cc2c[nH]c3ccccc23)CC1`: the results for the Ki in experiment [1] and in experiment [2] were 220 nM and 100 nM, respectively.

For orientation: Ki means a dissociation constant, usually derived from enzyme kinetics or from competition with a known ligand. Low readings indicate tighter binding, high ones weaker binding.
